In patent US20260174790A1, “HUMAN AND MURINE OPRM1 PROMOTERS AND USES THEREOF” (The Trustees of the University of Pennsylvania, priority 2022, published 2026):

Legend:
spinal MOR+ neurons = experiment: Von Frey filament Up-Down test with chemogenetic inhibition; format: in vivo, mouse; conditions: intrathecal DCZ 10 pg, mMORp-hM4Di-mCherry injected mice; von Frey and hot plate
Protocol: For spinal cord chemogenetic studies, mice were injected intraparenchymally at four sites (bilaterally at L4 and L5) with 400 nL of AAV1-mMORp-hM4Di-mCherry (titer: 3.1×10^12 gc/mL) to drive transduction of inhibitory DREADD receptor in spinal cord neurons. Using a modified, minimally invasive method for microinjection in the mouse spinal dorsal horn without laminectomy^91, mice were first anesthetized with isoflurane gas in oxygen (initial dose=4%, maintenance dose=2%), the back shaved and wiped with alcohol and povidone-iodine followed by a 2 cm incision made through the skin, and then placed within a modified Kopf stereotaxic frame to stabilize the T13 and L3 spinal column vertebrae. Next, the spinal column was slightly arched upwards by ˜30°, 0.2 mg/kg lidocaine was administered to the overlying muscle, which was then was gently dissected to expose the interspace above and below the T13 vertebrae, allowing direct access to the L3-5 spinal cord dorsal surface. […]
Von Frey filament touch test: To evaluate mechanical reflexive sensitivity, we used a logarithmically increasing set of 8 von Frey filaments (Stoelting), ranging in gram force from 0.07 to 6.0 grams. […] Using the Up-Down statistical method^100, the 50% withdrawal mechanical threshold scores were calculated for each mouse and then averaged across the experimental groups. […]

MOR+ CeA neurons [1] = experiment: In vivo fiber photometry, hot water hind paw stimulation; parameters: species or system mouse; conditions: mMORp-GCaMP6f mice, morphine i.p. 10 mg/kg 30 minutes prior to hot water hind paw stimulations
Protocol: For fiber photometry studies, mice were injected with ˜300 nL of recombinant AAV1-mMORp-GCaMP6f (titer: 3.69×10^12 gc/mL) in the right CeA, followed immediately by the placement of a fiberoptic implant (˜4.7 mm fiber, Doric Lenses) approximately 0.1-0.2 mm above the DV coordinate of the injection site (same as listed above). After setting the fiberoptic in position, MetaBond (Parkel1) and Jet Set dental acrylic (Lang Dental) were applied to the skull of a mouse to rapidly and firmly fix the fiberoptic in place. In brief, after exposure of the skull, the bone was scored with a scalpel blade to provide grooves for the MetaBond to settle into and provide better adhesion. After lowering the fiberoptic into the craniotomy hole, the skull was cleaned with saline and then fully air dried. […] All mice were monitored for up to two days following surgical procedures to ensure the animals' proper recovery.
Hot water hindpaw stimulation test: To evaluate responses to acute, noxious thermal stimulations during fiber photometry testing, we used a hot water hind paw application protocol described previously^102. […] Animals were continuously recorded by a web camera positioned to face the front of the cylinder in which the animal was housed, and all relevant behaviors time-locked to calcium mediated events were scored post-hoc using the video footage. […]

MOR+ CeA neurons [2] = experiment: In vivo fiber photometry, chronic morphine drinking and naloxone precipitated withdrawal; parameters: species or system mouse; conditions: mMORp-GCaMP6f mice, forced morphine drinking (0.3 mg/ml 3 days, 0.5 mg/ml 4 days), naloxone i.p. 3 mg/kg, 20-minute window
Protocol: For fiber photometry studies, mice were injected with ˜300 nL of recombinant AAV1-mMORp-GCaMP6f (titer: 3.69×10^12 gc/mL) in the right CeA, followed immediately by the placement of a fiberoptic implant (˜4.7 mm fiber, Doric Lenses) approximately 0.1-0.2 mm above the DV coordinate of the injection site (same as listed above). After setting the fiberoptic in position, MetaBond (Parkel1) and Jet Set dental acrylic (Lang Dental) were applied to the skull of a mouse to rapidly and firmly fix the fiberoptic in place. In brief, after exposure of the skull, the bone was scored with a scalpel blade to provide grooves for the MetaBond to settle into and provide better adhesion. […] All mice were monitored for up to two days following surgical procedures to ensure the animals' proper recovery.
In Vivo Fiber Photometry Recordings and Analysis: Optical recordings of GCaMP6f fluorescence were acquired using an RZ10× fiber photometry detection system (Tucker-Davis Technologies), consisting of a processor with Synapse software (Tucker-Davis Technologies), and optical components (Doric Lenses and ThorLabs). Excitation wavelengths generated by LEDs (460 nm blue light and 405 nm violet light) were relayed through a filtered fluorescence minicube at spectral bandwidths of 460-495 and 405 nm to a pre-bleached mono fiberoptic patch cord connected to the implant on top of each animal's head. […]

## CN1CCN(C2=Nc3ccccc3Nc3ccccc32)CC1 [DCZ, deschloroclozapine]
Spinal MOR+ neurons
  analgesic effects on activation of mMORp-hM4Di in spinal cord neurons: analgesic effects similar to CNO treatment

## CN1CC[C@]23c4c5ccc(O)c4O[C@H]2[C@@H](O)C=C[C@H]3[C@H]1C5.O=S(=O)(O)O [morphine, morphine sulfate]
MOR+ CeA neurons [1]
  calcium mediated event peak z-score: 7.6
MOR+ CeA neurons [2]
  average post naloxone calcium events: 91
